Here are results for 22 compounds from BindingDB's records for doi:10.1016/j.ejmech.2021.113512 (Jagiellonian University Medical College, 2021).

A short description of the assay: Inhibition of mouse GAT3 expressed in human HEK293 cell line assessed as inhibition of [3H]GABA uptake measured after 40 mins […].

One may read the IC50 as the concentration that inhibits the measured activity by half.

As to `CN(CCC=C1c2ccccc2C=Cc2ccccc21)C(CCO)C(=O)NCc1ccc(F)cc1` (configuration not stated), the IC50 came to 12.3 µM.

Consider `CN(CCC=C1c2ccccc2CCc2ccccc21)C(CCO)C(=O)NCc1ccc(F)cc1` (configuration not stated), for which the IC50 turned out to be 16.6 µM.

For the compound `CN(CCC=C1c2ccccc2C=Cc2ccccc21)C(CCO)C(=O)NCc1ccccc1Cl` (configuration not stated), the IC50 amounted to 8.91 µM.

Regarding `CN(CCC=C1c2ccccc2CCc2ccccc21)C(CCO)C(=O)NCc1ccccc1Cl` (configuration not stated), the IC50 is 12.6 µM.

Turning to `CN(CCC=C1c2ccccc2-c2ccccc21)C(CCO)C(=O)NCc1ccc(F)cc1` (configuration not stated), the IC50 worked out at 13.5 µM.

As for `Cc1ccc(CNC(=O)C(CCN)N(C)CCC=C2c3ccccc3CCc3ccccc32)cc1` (configuration not stated), the IC50 was determined as 4.79 µM.

`Cc1ccsc1C(=CCCN(C)[C@H]1CCCC[C@H]1C(=O)O)c1sccc1C`: the IC50 came to 933 µM.

With `CN(CCC=C1c2ccccc2-c2ccccc21)C(CCO)C(=O)NCc1ccc(Cl)cc1` (configuration not stated), the IC50 was 10.2 µM.

Consider `CN(CCC=C1c2ccccc2C=Cc2ccccc21)C(CCO)C(=O)NCc1ccccc1` (configuration not stated), for which the IC50 was determined as 13.5 µM.

Consider `CN(CCC=C1c2ccccc2CCc2ccccc21)C(CCN)C(=O)NCc1ccccc1Cl` (configuration not stated), for which the IC50 is 8.13 µM.

On to `CN(CCC=C1c2ccccc2CCc2ccccc21)C(CCO)C(=O)NCc1ccccc1` (configuration not stated), for which the IC50 is 11.5 µM.

For the compound `CN(CCC=C1c2ccccc2CCc2ccccc21)C(CCN)C(=O)NCc1ccc(Cl)cc1` (configuration not stated), the concentration for half-maximal inhibition (IC50) came out at 5.13 µM.

Turning to `CN(CCC=C1c2ccccc2CCc2ccccc21)C(CCN)C(=O)NCc1ccc(F)cc1` (configuration not stated), the IC50 was determined as 4.79 µM.

On to `CN(CCC=C1c2ccccc2-c2ccccc21)C(CCO)C(=O)NCc1ccccc1` (configuration not stated), for which the IC50 turned out to be 12.6 µM.

For `CC(=O)NCCC(C(=O)NCc1ccc(C)cc1)N(C)CCC=C1c2ccccc2CCc2ccccc21` (configuration not stated), the IC50 was 5.62 µM.

With `Cc1ccc(CNC(=O)C(CCO)N(C)CCC=C2c3ccccc3-c3ccccc32)cc1` (configuration not stated), the IC50 came to 20 µM.

Regarding `Cc1ccc(CNC(=O)C(CCO)N(C)CCC=C2c3ccccc3CCc3ccccc32)cc1` (configuration not stated), the IC50 was found to be 12.6 µM.

As for `CN(CCC=C(c1ccccc1)c1ccccc1)C(CCN)C(=O)NCc1ccccc1Cl` (configuration not stated), the IC50 came out at 10 µM.

Consider `CN(CCC=C1c2ccccc2-c2ccccc21)C(CCO)C(=O)NCc1ccccc1Cl` (configuration not stated), for which the IC50 was found to be 16.2 µM.

With `CC(=O)NCCC(C(=O)NCc1ccc(Cl)cc1)N(C)CCC=C1c2ccccc2CCc2ccccc21` (configuration not stated), the IC50 was 14.5 µM.

As for `Cc1ccc(CNC(=O)C(CCO)N(C)CCC=C2c3ccccc3C=Cc3ccccc32)cc1` (configuration not stated), the IC50 is 17 µM.

For the compound `CN(CCC=C1c2ccccc2C=Cc2ccccc21)C(CCO)C(=O)NCc1ccc(Cl)cc1` (configuration not stated), the IC50 worked out at 13.5 µM.
